Assay [1] has as its target T1, CYP125A13 (Streptomyces peucetius, UniProt Q70AR4).
T1 construct: gene cyp0266
T1 sequence (Q70AR4 1-413): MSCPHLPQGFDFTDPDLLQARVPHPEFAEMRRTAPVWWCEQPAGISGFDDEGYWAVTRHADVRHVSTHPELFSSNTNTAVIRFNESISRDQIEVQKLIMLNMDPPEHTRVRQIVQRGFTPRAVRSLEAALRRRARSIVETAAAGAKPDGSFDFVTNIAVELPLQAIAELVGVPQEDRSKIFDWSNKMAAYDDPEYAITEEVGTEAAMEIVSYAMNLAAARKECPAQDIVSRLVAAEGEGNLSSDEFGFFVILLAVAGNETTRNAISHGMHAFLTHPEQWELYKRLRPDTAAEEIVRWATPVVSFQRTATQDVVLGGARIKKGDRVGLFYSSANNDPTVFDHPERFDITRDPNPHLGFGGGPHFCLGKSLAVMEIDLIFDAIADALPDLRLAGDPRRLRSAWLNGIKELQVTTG
The assay is described as follows: UV-Vis spectral titration (type I shift), tight-binding quadratic fit; no product formation detected.

For assay [2], the target named is T1, CYP125A13. The assay is described as follows: UV-Vis spectral titration (type I shift), tight-binding quadratic fit; also turnover to 27-hydroxycholesterol with PDX/PDR (Km […]).

The values that follow come from publication PMC9728343, “Characterization of CYP125A13, the First Steroid C-27 Monooxygenase from Streptomyces peucetius ATCC27952” (Journal of Microbiology and Biotechnology, 2020).

In the case of `CC(C)CCC[C@@H](C)[C@H]1CC[C@H]2[C@@H]3CCC4=CC(=O)CC[C@]4(C)[C@H]3CC[C@]12C` [4-cholesten-3-one], the Kd on CYP125A13 [1] came to 59.2 ± 3.9 µM.

In the case of `CC(C)CCC[C@@H](C)[C@H]1CC[C@H]2[C@@H]3CC=C4C[C@@H](O)CC[C@]4(C)[C@H]3CC[C@]12C` [cholesterol], the Kd on CYP125A13 [2] is 56.9 ± 11.3 µM.
